Results taken from publication PMC4140855, “Production of an Attenuated Phenol-Soluble Modulin Variant Unique to the MRSA Clonal Complex 30 Increases Severity of Bloodstream Infection” (PLoS Pathogens, 2014).

What was measured:
[1] = system: kidneys (hematogenous seeding); experiment: Mouse bacteremia (renal abscess) model; assay type: in vivo; details: expressed in MRSA252 and 22030, versus isogenic strains expressing non-CC30 PSMα3
Procedure: (A) The MRSA252 strain (252, expressing PSMα3N22Y) was compared to a strain (252*) in which the psmα3 gene was changed to express non-CC30 PSMα3 in a mouse model of blood infection. Hematogenous seeding into the kidneys was measured 4 days after infecting mice via the tail vein with 1×10^7 CFU. Results from kidneys with considerable bacterial numbers (>10^3 CFU) are shown in the graph; the number of kidneys with lower or no bacteria is shown at the bottom. Analysis of significance was performed with the numbers obtained from all kidneys; *, p<0.05. Number of mice used per strain: 10. Two counts per analyzed kidney were performed. (B) Experiment as in (A) with strain 22030 expressing PSMα3N22Y and the isogenic 22030* strain expressing PSMα3. Number of mice used per strain: 20; two counts per analyzed kidney are included; inoculum: 1×10^6. *, p<0.05. (C, D) Tubulointerstitial nephritis with large colonies of bacteria (arrows) in kidneys infected with strain 252, magnification 100× (C) and 200× (D). (E) Absence of signs of infection in kidneys infected with strain 252* (magnification 100×).
For the renal abscess model, S. aureus strains were inoculated from a pre-culture and grown to mid-exponential growth phase (∼2 h), harvested, washed, and diluted with sterile PBS. […]

abscess or lesion = experiment: Mouse model of skin infection (abscess sizes); assay type: in vivo; details: Crl∶SKH1-hrBR mice, subcutaneous, 14 d; expressed in strains MRSA252 and 22030
Procedure: The mouse skin infection model was performed as described. Briefly, six to eight week-old female Crl∶SKH1-hrBR hairless mice (Charles River Laboratories) were injected subcutaneously with ∼4×10^7 CFU of S. aureus strains 252 or 252*, or ∼5×10^6 CFU of S. aureus strains 22030 or 22030* in 50 µl of PBS in the left flank of the mouse. The length (L) and width (W) of the abscess or lesion caused by the bacterial infection was measured with an electronic caliper daily for 14 d post infection and calculated using the formula L×W. Typically, strain MRSA252 caused closed abscesses and strain 22030 open lesions. All animals were euthanized after completion of the entire procedure. All mouse experiments were performed blinded at the animal care facility of the NIAID, Building 33, in compliance with the guidelines of the NIAID/NIH Institutional Animal Care and Use Committee.
Supplementary file ppat.1004298.s002.tif: Figure S2 Mouse model of skin infection. […] The length (L) and width (W) of the abscess or lesion caused by the bacterial infection was measured with an electronic caliper daily for 14 d post infection and calculated using the formula L×W. Typically, strain MRSA 252 caused closed abscesses and strain 22030 open lesions. […]

human erythrocytes = experiment: Hemolysis; assay type: cell-based; details: synthetic peptides, 37°C, 1 h, 2% erythrocytes, OD 540 nm; 2 donors, triplicate; compared to PSMα3N22Y
Procedure: Figure 5 PSMα3N22Y has diminished cytolytic activities. (A) PMN lysis of synthetic PSMα3N22Y versus PSMα3. Data are from 2 donors, measured in triplicate each after incubation at 37°C for 1 h. […] (B) Hemolysis of synthetic PSMα3N22Y versus PSMα3. Data are from 2 donors, measured in triplicate, after incubation at 37°C for 1 h. (C, D) PMN lysis and hemolysis, respectively, of culture filtrates from PSMα3N22Y- versus PSMα3-producing strains when expressed on plasmids. pTXΔ16 is the empty control vector. The background strain in all constructs is a PSM-free USA300 strain (LACΔpsmαΔpsmβΔhld). Culture filtrates were diluted 1∶20 for the PMN lysis and 1∶2 for the hemolysis measurements. PMN lysis results are from two and hemolysis data from one donor, with three replicates measured each. (E) PMN lysis of culture filtrates from MRSA252 (252) versus 252*, in which the psmα3 gene (expressing PSMα3N22Y) on the genome was changed to express PSMα3 as present in all non-CC30 strains. […] Culture filtrates were diluted 1∶10. *, p<0.05 (paired t-test). […]
Hemolysis assays were performed according to Wang et al. Briefly, whole blood from humans was washed twice with ice-cold DPBS. […] After incubation at 37°C for 1 h, the plates were centrifuged at 233×g at 4°C for 5 min, supernatants were collected, and the optical density was measured at 540 nm.

Row | SMILES | Capacity to cause sepsis and subsequent complications [1] | Virulence in skin infections as measured by abscess sizes (abscess or lesion) | Cytolytic capacity toward human erythrocytes (human erythrocytes)
1 | CSCC[C@H](NC=O)C(=O)N[C@@H](CCC(=O)O)C(=O)N[C@@H](Cc1ccccc1)C(=O)N[C@H](C(=O)N[C@@H](C)C(=O)N[C@@H](CCCCN)C(=O)N[C@@H](CC(C)C)C(=O)N[C@@H](Cc1ccccc1)C(=O)N[C@@H](CCCCN)C(=O)N[C@@H](Cc1ccccc1)C(=O)N[C@@H](Cc1ccccc1)C(=O)N[C@@H](CCCCN)C(=O)N[C@@H](CC(=O)O)C(=O)N[C@@H](CC(C)C)C(=O)N[C@@H](CC(C)C)C(=O)NCC(=O)N[C@@H](CCCCN)C(=O)N[C@@H](Cc1ccccc1)C(=O)N[C@@H](CC(C)C)C(=O)NCC(=O)N[C@@H](CC(N)=O)C(=O)N[C@@H](Cc1ccc(O)cc1)C(=O)O)C(C)C [PSMα3N22Y] | increased capacity to cause sepsis and subsequent complications | did not cause increased virulence in skin infections | 
2 | CSCC[C@H](NC=O)C(=O)N[C@@H](CCC(=O)O)C(=O)N[C@@H](Cc1ccccc1)C(=O)N[C@H](C(=O)N[C@@H](C)C(=O)N[C@@H](CCCCN)C(=O)N[C@@H](CC(C)C)C(=O)N[C@@H](Cc1ccccc1)C(=O)N[C@@H](CCCCN)C(=O)N[C@@H](Cc1ccccc1)C(=O)N[C@@H](Cc1ccccc1)C(=O)N[C@@H](CCCCN)C(=O)N[C@@H](CC(=O)O)C(=O)N[C@@H](CC(C)C)C(=O)N[C@@H](CC(C)C)C(=O)NCC(=O)N[C@@H](CCCCN)C(=O)N[C@@H](Cc1ccccc1)C(=O)N[C@@H](CC(C)C)C(=O)NCC(=O)N[C@@H](CC(N)=O)C(=O)N[C@@H](CC(N)=O)C(=O)O)C(C)C [PSMα3] |  |  | significantly higher cytolytic capacities
